Test results reported in BindingDB's records for patent US12552758 (Neophore, 2026).

Assays:
[1] = target: T1, Mismatch repair endonuclease PMS2 (UniProt P54278); experiment: Fluorescence Polarisation Assay for PMS2
T1 sequence (P54278 whole entry): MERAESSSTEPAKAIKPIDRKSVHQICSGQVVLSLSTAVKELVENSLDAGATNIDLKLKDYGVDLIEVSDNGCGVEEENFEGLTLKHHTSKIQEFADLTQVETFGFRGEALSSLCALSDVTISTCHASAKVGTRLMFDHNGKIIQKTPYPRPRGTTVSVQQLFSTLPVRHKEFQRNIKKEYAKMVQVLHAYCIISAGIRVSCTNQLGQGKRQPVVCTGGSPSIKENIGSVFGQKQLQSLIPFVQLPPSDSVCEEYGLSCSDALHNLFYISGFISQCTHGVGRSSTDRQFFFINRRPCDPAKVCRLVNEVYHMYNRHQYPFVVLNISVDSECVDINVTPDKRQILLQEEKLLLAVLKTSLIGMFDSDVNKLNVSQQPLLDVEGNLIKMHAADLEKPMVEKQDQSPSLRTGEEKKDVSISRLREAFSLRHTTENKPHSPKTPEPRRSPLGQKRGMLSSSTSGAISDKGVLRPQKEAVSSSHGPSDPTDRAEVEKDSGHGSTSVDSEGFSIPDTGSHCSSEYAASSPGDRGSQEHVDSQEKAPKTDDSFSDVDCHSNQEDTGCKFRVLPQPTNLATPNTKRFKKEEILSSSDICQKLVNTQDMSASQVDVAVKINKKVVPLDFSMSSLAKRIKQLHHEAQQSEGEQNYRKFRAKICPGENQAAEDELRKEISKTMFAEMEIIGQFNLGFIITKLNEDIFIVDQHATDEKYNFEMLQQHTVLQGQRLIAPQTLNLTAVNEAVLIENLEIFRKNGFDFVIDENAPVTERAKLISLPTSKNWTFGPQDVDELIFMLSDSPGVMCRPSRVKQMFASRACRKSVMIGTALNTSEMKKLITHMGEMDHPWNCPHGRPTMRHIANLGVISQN
Protocol: 20 μL assay buffer was added to all wells in columns 1 and 24 (column 24 only for single point screening) using a MultiDrop Combi (ThermoFisher). Plates were centrifuged for 1 minute at 250×g and were incubated at room temperature for 30 minutes prior to the addition of 20 μL of 2×([…]) of 5-((5-(4-((2-(2,4-dihydroxy-5-isopropylbenzoyl)isoindolin-5-yl)methyl)piperazin-1-yl)pentyl)carbamoyl)-2-(6-(dimethylamino)-3-(dimethyliminio)-3H-xanthen-9-yl)benzoate (referred to hereinafter as “probe compound”) in assay buffer (prepared from a 100 μM DMSO stock) with a MultiDrop Combi (ThermoFisher). The final concentration of N-terminal PMS2 was 10 nM and the final concentration of probe compound was 5 nM.

[2] = target: T2, DNA mismatch repair protein Mlh1 (UniProt P40692); experiment: Fluorescence Polarisation Assay for MLH1
T2 sequence (P40692 whole entry): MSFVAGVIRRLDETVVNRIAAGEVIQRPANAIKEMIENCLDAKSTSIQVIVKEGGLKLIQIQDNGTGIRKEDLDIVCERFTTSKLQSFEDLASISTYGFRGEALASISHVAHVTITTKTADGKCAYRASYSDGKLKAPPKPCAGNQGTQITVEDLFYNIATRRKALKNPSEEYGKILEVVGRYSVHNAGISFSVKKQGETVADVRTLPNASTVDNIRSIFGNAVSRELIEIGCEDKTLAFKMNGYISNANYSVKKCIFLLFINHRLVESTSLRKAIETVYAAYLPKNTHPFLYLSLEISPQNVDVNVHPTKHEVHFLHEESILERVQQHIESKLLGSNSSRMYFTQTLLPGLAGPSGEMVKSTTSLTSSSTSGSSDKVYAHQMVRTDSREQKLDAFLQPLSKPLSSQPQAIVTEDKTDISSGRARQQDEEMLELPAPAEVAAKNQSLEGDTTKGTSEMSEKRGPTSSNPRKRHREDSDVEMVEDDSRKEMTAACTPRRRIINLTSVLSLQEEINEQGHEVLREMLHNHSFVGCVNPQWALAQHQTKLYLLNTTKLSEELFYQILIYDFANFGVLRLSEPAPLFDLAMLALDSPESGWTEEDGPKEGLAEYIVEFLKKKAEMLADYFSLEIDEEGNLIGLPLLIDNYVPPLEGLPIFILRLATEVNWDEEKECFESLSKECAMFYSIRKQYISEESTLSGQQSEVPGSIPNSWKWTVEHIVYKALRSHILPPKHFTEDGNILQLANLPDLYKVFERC
Protocol: 20 μL assay buffer was added to all wells in columns 1 and 24 (column 24 only for single point screening) using a MultiDrop Combi (ThermoFisher). Plates were centrifuged for 1 minute at 250×g and were incubated at room temperature for 30 minutes prior to the addition of 20 μL of 2×(10 nM) of 5-((5-(4-((2-(2,4-dihydroxy-5-isopropylbenzoyl)isoindolin-5-yl)methyl)piperazin-1-yl)pentyl)carbamoyl)-2-(6-(dimethylamino)-3-(dimethyliminio)-3H-xanthen-9-yl)benzoate (referred to hereinafter as “probe compound”) in assay buffer (prepared from a 100 μM DMSO stock) with a MultiDrop Combi (ThermoFisher). The final concentration of N-terminal MLH1 was 100 nM and the final concentration of probe compound was 5 nM.

Row | IC50 [1] | IC50 [2] | SMILES
1 | < 1 µM | > 10 µM | Cc1c(O)cc(O)c(C(=O)N2Cc3cccc(Br)c3C2)c1OCc1ccccc1 [US12552758, Example 38]
2 | < 1 µM | > 10 µM | Cc1c(O)cc(O)c(C(=O)N2Cc3cccnc3C2)c1OCc1ccccc1 [US12552758, Example 30]
